Structures are written as SMILES.

Data set [1] concerns the target Epidermal growth factor receptor (Homo sapiens, UniProt P00533).
The target of data set [2] is Proto-oncogene tyrosine-protein kinase Src (Homo sapiens, UniProt P12931). Briefly: Inhibition of full-length recombinant human C-terminal His-tagged SRC cytoplasmic domain expressed in baculovirus expression system using FAM-Srctide peptide as substrate preincubated for 1 hr followed by substrate addition and measured after 1 hr by TR-FRET Lanthascreen assay. (In general: TR-FRET usually uses a lanthanide donor and a delayed reading to cut background.)

Data set [3] has as its target T1, Tyrosine-protein kinase BTK (Homo sapiens, UniProt Q06187).
Description: Reversible inhibition of full-length human His-tagged BTK expressed in baculovirus expression system assessed as apparent dissociation half life by kinase tracer 236 based TR-FRET assay
Data set [4] in a line: Permeability in RRCK cells. Format: ADME, cell-based, Canis lupus familiaris, MDCKII-LE. Particulars: dog, MDCK; read-out: permeability.
The target of data set [5] is Tyrosine-protein kinase BTK (Homo sapiens, UniProt Q06187, C481S). The data set is described as follows: Inhibition of full-length human C-terminal His6-tagged BTK C481S mutant expressed in Sf9 insect cells using FAM-Srctide peptide as substrate preincubated for 1 hr followed by substrate addition and measured after 1 hr by TR-FRET Lanthascreen assay.
The nature of data set [6]: Cytotoxicity against human THLE cells. In kind it is cell-based.
Data set [7] can be described thus: Oral bioavailability in Wistar Han rat at 1 mg/kg administered via gavage by LC-MS/MS analysis. In kind it is ADME, organism-based. Particulars: in vivo.
A short description of data set [8]: Clearance in human microsomes. Format: ADME, Microsome.
The target of data set [9] is T1, Tyrosine-protein kinase BTK. Briefly: Inhibition of BTK in human whole blood assessed as reduction in anti-human IgE antibody-stimulated histamine release pretreated for 2 hrs followed by anti-human IgE antibody-stimulation and measured after 30 mins by ELISA. In kind it is tissue-based. (An ELISA detects its analyte on a solid surface through an enzyme-linked reagent.)

For data set [10] the target is unchanged. Briefly: Inhibition of BTK in goat anti-human IgM F(ab')2-stimulated human whole blood assessed as suppression of CD69 expression on B cells pretreated for 1 hr followed by goat anti-human IgM F(ab')2-stimualtion and measured after 3 hrs by Fix/Lyse reagent based flow cytometry. Format: tissue-based.
For data set [11] the target is unchanged. This is another data set of the same source.
Description: Inhibition of full-length human His-tagged BTK expressed in baculovirus expression system using FAM-Srctide peptide as substrate preincubated for 1 hr followed by substrate addition and measured after 1 hr by TR-FRET Lanthascreen assay

Chain of Tyrosine-protein kinase BTK (Homo sapiens, UniProt Q06187, C481S) (Q06187 2-659 C481S limits assumed): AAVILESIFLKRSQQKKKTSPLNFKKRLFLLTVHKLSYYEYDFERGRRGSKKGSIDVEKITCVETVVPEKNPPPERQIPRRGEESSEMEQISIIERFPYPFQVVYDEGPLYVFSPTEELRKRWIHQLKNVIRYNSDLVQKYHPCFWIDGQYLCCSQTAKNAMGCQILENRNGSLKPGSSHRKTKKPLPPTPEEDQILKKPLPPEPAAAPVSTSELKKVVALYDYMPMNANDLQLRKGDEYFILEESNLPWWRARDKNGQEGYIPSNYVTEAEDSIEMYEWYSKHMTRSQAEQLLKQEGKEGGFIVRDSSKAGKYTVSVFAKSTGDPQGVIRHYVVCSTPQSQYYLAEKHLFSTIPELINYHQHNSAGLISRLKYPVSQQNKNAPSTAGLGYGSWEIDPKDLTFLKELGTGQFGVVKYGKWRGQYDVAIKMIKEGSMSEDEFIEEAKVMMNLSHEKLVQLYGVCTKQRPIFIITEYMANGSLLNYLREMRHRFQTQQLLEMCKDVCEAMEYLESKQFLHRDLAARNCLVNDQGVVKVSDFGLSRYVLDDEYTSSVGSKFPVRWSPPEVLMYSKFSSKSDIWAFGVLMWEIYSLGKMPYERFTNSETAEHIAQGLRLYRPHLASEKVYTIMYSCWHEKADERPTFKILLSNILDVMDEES
Chain of Proto-oncogene tyrosine-protein kinase Src (P12931 2-536 limits assumed): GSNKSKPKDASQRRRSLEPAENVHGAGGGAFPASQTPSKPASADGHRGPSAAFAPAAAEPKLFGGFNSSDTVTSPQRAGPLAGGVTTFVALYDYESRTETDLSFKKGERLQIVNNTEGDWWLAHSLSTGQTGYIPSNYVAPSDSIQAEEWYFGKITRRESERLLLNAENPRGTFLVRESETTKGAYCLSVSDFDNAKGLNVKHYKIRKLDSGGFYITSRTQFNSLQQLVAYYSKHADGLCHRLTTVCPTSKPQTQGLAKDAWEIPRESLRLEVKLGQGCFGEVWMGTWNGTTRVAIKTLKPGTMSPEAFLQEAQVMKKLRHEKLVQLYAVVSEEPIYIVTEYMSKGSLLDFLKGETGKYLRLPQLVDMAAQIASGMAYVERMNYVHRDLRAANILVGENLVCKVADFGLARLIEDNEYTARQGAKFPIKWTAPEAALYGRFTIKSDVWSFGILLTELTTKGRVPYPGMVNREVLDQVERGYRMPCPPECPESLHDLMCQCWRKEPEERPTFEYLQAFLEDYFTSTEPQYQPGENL
Chain of Epidermal growth factor receptor (P00533 whole entry, the tested form may be a part): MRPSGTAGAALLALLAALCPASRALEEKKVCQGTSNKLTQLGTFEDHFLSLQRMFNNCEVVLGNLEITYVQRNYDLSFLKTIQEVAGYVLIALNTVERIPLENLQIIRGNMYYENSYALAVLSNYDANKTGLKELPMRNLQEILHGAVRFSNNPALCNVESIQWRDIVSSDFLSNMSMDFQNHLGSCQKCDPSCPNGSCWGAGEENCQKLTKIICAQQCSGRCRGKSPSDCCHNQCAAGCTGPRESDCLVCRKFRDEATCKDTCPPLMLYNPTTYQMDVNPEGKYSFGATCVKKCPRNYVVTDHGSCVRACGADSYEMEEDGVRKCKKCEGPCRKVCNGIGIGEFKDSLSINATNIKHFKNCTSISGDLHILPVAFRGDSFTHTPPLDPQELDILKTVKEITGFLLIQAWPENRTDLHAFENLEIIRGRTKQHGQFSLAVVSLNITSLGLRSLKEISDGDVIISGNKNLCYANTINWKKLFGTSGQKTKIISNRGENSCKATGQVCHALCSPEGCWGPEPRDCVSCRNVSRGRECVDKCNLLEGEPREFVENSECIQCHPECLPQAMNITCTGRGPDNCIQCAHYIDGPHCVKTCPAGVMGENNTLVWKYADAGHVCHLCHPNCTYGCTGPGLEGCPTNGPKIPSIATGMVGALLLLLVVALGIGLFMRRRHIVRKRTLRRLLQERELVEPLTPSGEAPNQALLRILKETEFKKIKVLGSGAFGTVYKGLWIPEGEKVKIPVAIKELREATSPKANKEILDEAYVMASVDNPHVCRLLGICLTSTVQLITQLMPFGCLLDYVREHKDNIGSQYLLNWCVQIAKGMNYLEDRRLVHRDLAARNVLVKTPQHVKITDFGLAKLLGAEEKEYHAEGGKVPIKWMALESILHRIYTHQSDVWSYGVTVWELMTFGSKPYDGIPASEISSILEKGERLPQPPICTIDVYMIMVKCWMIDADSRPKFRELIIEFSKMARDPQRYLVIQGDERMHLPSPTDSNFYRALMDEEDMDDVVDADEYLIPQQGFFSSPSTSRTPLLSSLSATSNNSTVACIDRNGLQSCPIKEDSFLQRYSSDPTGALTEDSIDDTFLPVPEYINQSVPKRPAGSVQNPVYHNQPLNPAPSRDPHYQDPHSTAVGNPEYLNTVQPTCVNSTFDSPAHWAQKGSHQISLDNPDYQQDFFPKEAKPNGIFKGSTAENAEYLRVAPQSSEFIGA
T1 sequence (Q06187 whole entry): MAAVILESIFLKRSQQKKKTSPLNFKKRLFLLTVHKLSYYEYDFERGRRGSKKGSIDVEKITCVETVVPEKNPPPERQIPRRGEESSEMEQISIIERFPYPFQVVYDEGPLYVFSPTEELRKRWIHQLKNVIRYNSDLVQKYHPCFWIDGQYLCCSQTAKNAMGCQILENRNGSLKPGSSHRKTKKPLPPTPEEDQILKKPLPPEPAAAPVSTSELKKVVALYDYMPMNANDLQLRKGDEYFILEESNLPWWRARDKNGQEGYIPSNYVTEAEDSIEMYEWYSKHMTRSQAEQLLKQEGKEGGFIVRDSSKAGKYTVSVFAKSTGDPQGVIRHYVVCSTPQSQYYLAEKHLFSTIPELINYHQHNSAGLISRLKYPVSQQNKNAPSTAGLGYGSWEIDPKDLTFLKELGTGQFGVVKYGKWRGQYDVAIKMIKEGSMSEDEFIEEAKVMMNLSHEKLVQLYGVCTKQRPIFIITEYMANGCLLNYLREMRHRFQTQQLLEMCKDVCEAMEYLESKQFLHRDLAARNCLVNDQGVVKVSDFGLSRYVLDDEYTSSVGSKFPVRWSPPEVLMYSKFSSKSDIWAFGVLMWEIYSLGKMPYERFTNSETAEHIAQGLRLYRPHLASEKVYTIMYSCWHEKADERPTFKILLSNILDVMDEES

The term IC50 denotes the midpoint of a concentration-inhibition curve. In general, bioavailability refers to the share of a dose that reaches the circulation, judged against a reference dose that is usually intravenous. Low values mean little systemic uptake, high ones much systemic uptake. As usually defined, the microsomal CLint is a measure of how fast metabolising enzymes remove a compound, apart from limits set by blood flow. Lower therefore signals slow turnover. `N#CN1CCC[C@@H](n2nc(-c3ccc(Oc4ccc(F)cc4F)cc3)c(C(N)=O)c2N)C1`: the 50% inhibitory concentration (IC50) was determined as 16800 nM in [1]; 1630 nM in data set [2]; 43 nM in data set [5]; 137000 nM in data set [6]; 64 nM in data set [9]; 53 nM in [10]. Also, the IC50 in data set [11] is 1.5 nM. In [3], this molecule had a T1/2 of 6 h. In addition, in data set [4], the Papp was more than 10 ×10⁻⁶ cm/s. In [7], this molecule had a bioavailability of 76 to 93%. This molecule had a microsomal CLint in data set [8] of less than 8 µL/min/mg.

Take `C=CC(=O)N1CCC[C@@H](n2nc(-c3ccc(Oc4ccc(F)cc4F)cc3)c(C(N)=O)c2N)C1`: the IC50 came to 26 nM in data set [1]; 4030 nM in [2]; 17 nM in data set [5]; 15000 nM in data set [6]; 0.25 nM in data set [11]. This molecule also came in with a T1/2 in [3] of more than 24 h.

`NC(=O)c1c(-c2ccc(Oc3ccc(F)cc3F)cc2)nn([C@@H]2CCCN(C(=O)/C=C/C(F)F)C2)c1N`: the IC50 came out at 5840 nM in [2], 115 nM in data set [5], 8000 nM in data set [6] and 0.41 nM in [11]. Besides, the T1/2 in data set [3] is more than 24 h.

Turning to `C/C=C/C(=O)N1CCC[C@@H](n2nc(-c3ccc(Oc4ccc(F)cc4F)cc3)c(C(N)=O)c2N)C1`, the IC50 was more than 20000 nM in data set [1]; 3410 nM in data set [2]; 66 nM in data set [5]; 149000 nM in data set [6]; 61 nM in [11]. The molecule further came in with a T1/2 in data set [3] of more than 24 h.

For the molecule `C=CC(=O)N1CCC[C@@H](n2nc(-c3ccc(Oc4ccccc4)cc3)c3c(N)ncnc32)C1` [IBRUTINIB], the IC50 in [6] turned out to be 11000 nM.

Consider `N#CN1CCC[C@@H](n2nc(-c3ccc(Oc4cccc(C(F)(F)F)n4)cc3)c(C(N)=O)c2N)C1`, for which the IC50 was more than 20000 nM in [1]; 14400 nM in [2]; 36 nM in data set [5]; 42 nM in data set [9]; 33 nM in data set [10]. Also, the T1/2 in [3] came to 3 h. Also, the Papp in data set [4] is more than 10 ×10⁻⁶ cm/s. Besides, the bioavailability in data set [7] lay in the range of 76 to 93%. The molecule also registered a microsomal CLint in data set [8] of less than 8 µL/min/mg.

With `C=CC(=O)N1CCC[C@@H](n2nc(-c3ccc(Oc4ccc(Cl)cc4)cc3)c(C(N)=O)c2N)C1`, the values for the IC50 in data set [1], in [2] and in [11] were 15 nM, 72 nM and 0.18 nM, respectively.

For `CN(C)C/C=C/C(=O)N1CCC[C@@H](n2nc(-c3ccc(Oc4ccc(F)cc4F)cc3)c(C(N)=O)c2N)C1`, the IC50 was 149 nM in [1]; 370 nM in data set [2]; 65 nM in data set [5]; 15000 nM in data set [6]; 3.7 nM in data set [11]. Also, the T1/2 in data set [3] was more than 24 h.

Turning to `NC(=O)c1c(-c2ccc(Oc3ccc(F)cc3F)cc2)nn([C@@H]2CCCN(C(=O)/C=C/CF)C2)c1N`, the IC50 in data set [2] came to 3140 nM; in data set [5], 90 nM; in data set [6], 49000 nM; in data set [11], 2.7 nM. This molecule also came in with a T1/2 in data set [3] of more than 24 h.

As for `N#CN1CCC[C@@H](n2nc(-c3ccc(Oc4ccc(Cl)cn4)cc3)c(C(N)=O)c2N)C1`, the IC50 is 15400 nM in data set [1]; more than 20000 nM in data set [2]; 92 nM in data set [5]; 95 nM in data set [9]; 45 nM in data set [10]; 6.2 nM in [11]. In data set [3], this molecule registered a T1/2 of 7 h. Moreover, the Papp in data set [4] was more than 10 ×10⁻⁶ cm/s. In data set [7], this molecule returned a bioavailability of 76 to 93%. The microsomal CLint in data set [8] was less than 8 µL/min/mg.

Take `NC(=O)c1c(-c2ccc(Oc3ccc(F)cc3F)cc2)nn([C@@H]2CCCN(C(=O)/C=C/CO)C2)c1N`: the IC50 in data set [1] was determined as 2910 nM; in data set [2] it was 4610 nM; in data set [5], 33 nM; in [6], 43000 nM. In data set [3], this molecule registered a T1/2 of more than 24 h.

Turning to `C=C(F)C(=O)N1CCC[C@@H](n2nc(-c3ccc(Oc4ccc(F)cc4F)cc3)c(C(N)=O)c2N)C1`, the IC50 in [1] came to 570 nM; in data set [2], 6480 nM; in [5], 170 nM; in data set [6], 67000 nM. Also, the T1/2 in [3] is more than 24 h.

`N#CN1CCC[C@@H](n2nc(-c3ccc(Oc4ccccc4)cc3)c(C(N)=O)c2N)C1`: the IC50 in data set [1] turned out to be 1710 nM; in data set [2] it was 4.2 nM; in [5] it was 2.8 nM; in [11], 0.37 nM. In [3], this molecule returned a T1/2 of 7 h.

For `N#CN1CCC[C@@H](n2nc(-c3ccc(Oc4ncc(Cl)cc4F)cc3)c(C(N)=O)c2N)C1`, the IC50 is more than 20000 nM in [1]; more than 20000 nM in data set [2]; 230 nM in [5]; 50 nM in [9]; 89 nM in data set [10]. The molecule also came in with a T1/2 in [3] of 5 h. Also, the Papp in data set [4] is more than 10 ×10⁻⁶ cm/s. Also, the bioavailability in data set [7] is 76 to 93%. The same molecule showed a microsomal CLint in data set [8] of less than 8 µL/min/mg.

Take `N#CN1CCC[C@@H](n2nc(-c3ccc(Oc4ccc(Cl)cc4)cc3)c(C(N)=O)c2N)C1`: the IC50 in data set [2] came out at 1400 nM; in data set [5], 48 nM; in data set [9] it was 21 nM; in data set [10], 46 nM. Moreover, the T1/2 in data set [3] was found to be 6 h. Moreover, the Papp in [4] is more than 10 ×10⁻⁶ cm/s. In [7], this molecule returned a bioavailability of 76 to 93%. Also, the microsomal CLint in [8] was less than 8 µL/min/mg.

Turning to `C=C(C)C(=O)N1CCC[C@@H](n2nc(-c3ccc(Oc4ccc(F)cc4F)cc3)c(C(N)=O)c2N)C1`, the IC50 was more than 20000 nM in data set [1], 3350 nM in data set [2], 176 nM in [5] and 247 nM in data set [11].

These data come from ChEMBL document CHEMBL4382291, “Aminopyrazole Carboxamide Bruton's Tyrosine Kinase Inhibitors. Irreversible to Reversible Covalent Reactive Group Tuning” (ACS Med Chem Lett, 2019).
